Values joined by “and” are separate entries in the source; they are usually repeats but may differ in a detail not shown here. Identical values can stand only once. Numbers after ± are expanded uncertainties.
Details: Crystal, Calculated from knudsen effusion weight loss

With `COc1cc(CO)ccc1O` [4-hydroxy-3-methoxybenzyl alcohol] the “vapor or sublimation pressure” value (332.19 K) was 0.000113 ± 6e-05 kPa and 0.0001121 ± 6e-05 kPa and 0.0001096 ± 6e-05 kPa, the “vapor or sublimation pressure” value (334.36 K) was 0.0001475 ± 6e-05 kPa and 0.0001466 ± 6e-05 kPa and 0.0001413 ± 6e-05 kPa and the “vapor or sublimation pressure” value (336.15 K) was 0.0001823 ± 6e-05 kPa and 0.0001755 ± 6e-05 kPa and 0.0001867 ± 6e-05 kPa. The “vapor or sublimation pressure” value (338.21 K) was 0.0002375 ± 6.1e-05 kPa and 0.0002339 ± 6.1e-05 kPa and 0.0002403 ± 6.1e-05 kPa, the “vapor or sublimation pressure” value (340.27 K) was 0.0003072 ± 6.1e-05 kPa and 0.0002982 ± 6.1e-05 kPa and 0.0003122 ± 6.1e-05 kPa and the “vapor or sublimation pressure” value (342.14 K) was 0.0003845 ± 6.2e-05 kPa and 0.0003697 ± 6.1e-05 kPa and 0.0003916 ± 6.2e-05 kPa. The “vapor or sublimation pressure” value (344.21 K) was 0.0005061 ± 6.3e-05 kPa and 0.0004935 ± 6.3e-05 kPa and 0.000506 ± 6.3e-05 kPa, the “vapor or sublimation pressure” value (346.27 K) was 0.0006422 ± 6.4e-05 kPa and 0.0006234 ± 6.4e-05 kPa and 0.0006502 ± 6.4e-05 kPa and the “vapor or sublimation pressure” value (348.13 K) was 0.0008066 ± 6.7e-05 kPa and 0.0007737 ± 6.6e-05 kPa and 0.0008145 ± 6.7e-05 kPa. For the same compound, the “vapor or sublimation pressure” value (350.15 K) was 0.001038 ± 9.5e-05 kPa and 0.001007 ± 9.3e-05 kPa and 0.001064 ± 9.7e-05 kPa.

From the NIST ThermoML archive (doi:10.1016/j.jct.2016.07.015)
